Results: patent publication US5066671A, “Ellagic acid derivatives as phospholipase A2 inhibitors” (American Home Products Corporation, priority 1990, dated 1991)

Assays:
[1] = tested on: paw edema induced by the exogenous administration of PLA2; assay: animal or person; type: in vivo, male CD-1 mice; conditions: for ED50 mg/kg p.o. at +10 min. (result in words) / % Change in Edema, 10 min: 10 min after PLA2 injection; for ED50 mg/kg p.o. at +10 min. (result in words): standard drugs; for ED50 mg/kg p.o. at +10 min.: mouse, in vivo; for ED50 mg/kg p.o. at +10 min. / ED50: po; for ED50: Mus musculus, 10 min, read-out: ED50 mg/kg p.o. at +10 min.; for % Change in Edema, 30 min: 30 min after PLA2 injection; for % Change in Edema, 60 min: 60 min after PLA2 injection
Procedure: The ability of the compounds of the invention to inhibit paw edema induced by the exogenous administration of PLA2 is measured in the in vivo PLA2 murine paw edema assay.
The assay is carried out as follows:
Non-fasted, male CD-1 mice (8 weeks old; 31-36 grams) are placed in plastic boxes in groups of six. The right hind paw volume is measured using mercury plethysmography (zero time). Compounds are dosed orally (0.5 mL of 0.5% Tween80) 1 or 3 hours prior to PLA2 injection or intravenously (0.2 mL in 0.3% dimethylsulfoxide/saline) 3 minutes prior to PLA2 injection. A solution of purified PLA2, from the diamond back cotton mouth snake (A. piscivorus piscivorus) is prepared in saline at a concentration of 6 μg/mL. Fifty (50) μL (0.3 μg) of this PLA2 solution is injected subcutaneously into the right hind paw with a plastic 1 mL plastic syringe (27 gauge, 1" needle). Paw volume of the injected paw is measured again at 10 minutes, 30 minutes and 60 minutes after PLA2 injection. Animals are euthanized with CO2 at the completion of the study.
The paw edema is calculated by subtracting the zero time volume from the volume recorded at each time period. Mean paw edema for each treatment group is then calculated and expressed as (μL±S.E.). Drug effects are expressed as a percent change from control (vehicle) values. Statistical significance is determined by a oneway analysis of variance with LSD comparison to control (p<0.05). ED50 's are determined using repression analysis.

[2] = tested on: paw edema induced by the exogenous administration of PLA2; type: in vivo, male CD-1 mice
carrageenan paw edema = assay: rat carrageenan paw edema assay; type: in vivo, male Sprague-Dawley rats; conditions: for ED50: Rattus norvegicus, po, 3 h, read-out: Oral ED50 (95% C.L.) mg/kg
Procedure: The compounds of the invention are tested in the rat carrageenan paw edema assay to determine their ability to inhibit the acute inflammatory response.
(§1) This assay is carried out as follows:
140-180 gm male Sprague-Dawley rats, in groups of 6 animals, are injected subcutaneously in the right paw with 0.1 ml of 1% carrageenan at zero time. Mercury plethysmographic readings (ml) of the paw are made at zero time and 3 hours later. Test compounds are suspended or dissolved in 0.5% methylcellulose and given perorally 1 hour prior to carrageenan administration.
The increase in paw volume (edema in ml) produced by the carrageenan is measured. Paw edema is calculated (3 hour volume minus zero time volume), and percent inhibition of edema is determined. Unpaired Student's t-test is used to determine statistical significance.

[3] = tested on: synthesis of LTB4 by rat glycogen-elicited polymorphonuclear leukocytes; assay: inhibition of LTB4 synthesis by rat glycogen-elicited polymorphonuclear leukocytes (PMN); type: cell-based; conditions: Leukocyte
Procedure: Accordingly, the specificity of action of PLA2 inhibitors can be determined by the activity of test compounds in this assay, which measures the ability of compounds to inhibit the synthesis of LTB4 by rat glycogen-elicited polymorphonuclear leukocytes (PMN) in the presence of exogenous substrate.
To 1 mL aliquots of cell suspension, test drugs or vehicle are added, then preincubated at 37° C. for 10 minutes. A23187 (1 μM), [^3 H]-AA (3.0 μCi/mL) and unlabeled AA (1 μM) are then added and the samples are further incubated for 10 minutes. […]
Injections: 140 μL of each supernatant is injected directly onto column and ^3 H arachidonic acid metabolites are monitored using an on-line radioactivity detector (Ramona, IN/US, Fairfield, NJ). […]
Results are expressed as percent inhibition at a given compound dose.

[4] = tested on: synthesis of the arachidonic acid cyclooxygenase oxidation product TxB2; assay: inhibition of TxB2 synthesis by rat polymorphonuclear leukocytes (cyclooxygenase activity); type: cell-based; conditions: rat PMN
Procedure: Rat polymorphonuclear leukocytes (PMNs) are obtained from female Wistar rats (150-200 g) which receive an injection of 6% glycogen (10 ml i.p.). Rats are sacrificed 18-24 hours post injection by CO2 asphyxiation and the elicited cells are harvested by peritoneal lavage using physiological saline (0.9% NaCl). The exudate is centrifuged at 400 xg for 10 minutes. The supernatant fluid is discarded and the cell pellet is resuspended to a concentration of 2.0×10^7 cells/mL in HBSS containing Ca^++ and Mg^++ and 10 μM L-cysteine.
To 1 mL aliquots of cell suspension, test drugs or vehicle are added, then preincubated at 37° C. for 10 minutes. A23187 (1 μM), [^3 H]-AA (3.0 μCi/mL) and unlabeled AA (1 μM) are then added and the samples are further incubated for 10 minutes. The reaction is terminated by centrifugation and pelleting cells. Supernatants are then analyzed by HPLC analysis on a 15 cm×4.6 mm ID supelcosil LC-18 (Supelco)(3M) column, using a two solvent system at a flow rate of 1.4 mL total flow as follows:
In this assay, the procedure of Example 1 is carried out as described. However, in order to determine cyclooxygenase activity, the samples are cochromatographed with authentic reference [^3 H]-TxB2.
The results are calculated as in Example 1 and presented below: […]

Human Platelet PLA2 = target: T1, Human Platelet PLA2 (Homo sapiens, UniProt P14555); assay: in vitro isolated phospholipase A2 assay, human platelet PLA2; type: biochemical
T1 construct: platelet acid extract PLA2; from tissue; host or cells: human platelets (semipurified acid extract)
T1 sequence (P14555 21-144): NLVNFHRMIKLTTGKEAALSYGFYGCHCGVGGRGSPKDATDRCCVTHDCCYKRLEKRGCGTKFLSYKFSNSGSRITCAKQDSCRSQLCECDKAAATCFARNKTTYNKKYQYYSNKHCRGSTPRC
Procedure: (§2) The compounds of the invention are tested in an in vitro isolated phospholipase A2 assay to determine the ability of the test compounds to inhibit the release of arachidonic acid from an arachidonic acid-containing substrate by the action of phospholipase A2 enzyme from human and non-human sources.
as §1
(§3) Into a 15 mL polypropylene tube are added the following:
(§4) ^3 H-AA E.coli substrate^1
(§5) PLA2 25 Volume yielding 12%
(§6) 100 hydrolysis in 10 min.
(§7) *pre-incubate at room temperature 30 min prior to substrate addition.
(§8) ^5 Stock 10 mM prepared in dimethyl sulfoxide. Make 1:2 dilution with
(§9) dimethyl sulfoxide and add 1 μL to 100 μL assay tube.
(§10) ^ 6 Two human PLA2 enzymes are used: (a) Semipurified human
(§11) platelet acid extract PLA2 (in 10 mM sodium acetate buffer, pH 4.5).
(§12) Remove protein precipitate by centrifugation at about 2200 rpm for 10
(§13) minutes. (b) Purified human synovial fluid.
(§14) Incubate the 100 μL reaction mixture for 10 minutes at 37° C. in a shaking water bath. The reaction is terminated by the addition of 2 mL tetrahydrofuran, followed by vortexing. NH2 columns (100 μg/mL-Analytichem International) are conditioned with 0.5 mL tetrahydrofuran followed by 0.5 mL tetrahydrofuran/water (2 mL:0.1 mL, v/v).
(§15) The sample is loaded onto the columns and slowly drawn through them. The hydrolyzed arachidonic acid retained in the columns is eluted therefrom with 1 mL tetrahydrofuran/glacial acetic acid (2%). The arachidonic acid is transferred to scintillation vials and quantitated by β-counting analysis. A "total counts" sample is prepared by pipetting 25 μL ^3 H-arachidonate E. coli directly into a scintillation vial to which is added 1 mL tetrahydrofuran. 10 mL aquasol (scintillation cocktail) is added to all samples. [formula]

Human Synovial PLA2 = target: T2, Human Synovial PLA2 (Homo sapiens, UniProt P14555); assay: in vitro isolated phospholipase A2 assay, human synovial fluid PLA2; type: biochemical; conditions: for IC50: compounds of the invention, read-out: IC50 HSF (human synovial fluid)
T2 construct: Purified human synovial fluid; from tissue; host or cells: human synovial fluid (purified)
T2 sequence (P14555 21-144): T1 sequence (P14555 21-144)
Procedure: as §2, §1, §3, §4, §5, §6, §7, §8, §9, §10, §11, §12, §13, §14, §15

Hageman factor = conditions: Ratnoff et al., J. Lab. Clin. Med. 63, 359 (1964); cited from earlier work
[5] = Derwent Publications 78-88538A; cited from earlier work

COc1cccc2c1cc([N+](=O)[O-])c1c(C(=O)O)cc3c(c12)OCO3 [Aristolochic Acid, reference compound]
ED50 mg/kg p.o. at +10 min. (result in words) [1]: Not Active
inhibition only when coinjected with enzyme [2]: 30%

COc1ccc2cc([C@H](C)C(=O)O)ccc2c1 [Naproxen, reference compound]
ED50 mg/kg p.o. at +10 min. [1]: 18 mg/kg

CN1CCC(=C2c3ccccc3C=Cc3ccccc32)CC1 [Cyproheptadine, reference compound]
ED50 [1]: 3.1 mg/kg

CC(=O)Oc1ccccc1C(=O)O [Aspirin]
ED50 (carrageenan paw edema): 145 mg/kg

C[C@@H]1C[C@H]2[C@@H]3CCC4=CC(=O)C=C[C@]4(C)[C@@]3(F)[C@@H](O)C[C@]2(C)[C@@]1(O)C(=O)CO [Dexamethasone, reference compound]
ED50 mg/kg p.o. at +10 min. [1]: 10 mg/kg

Luffarrellolide [reference compound]
ED50 mg/kg p.o. at +10 min. (result in words) [1]: Not Active
inhibition only when coinjected with enzyme [2]: 30%

COc1ccc2c(c1)c(CC(=O)O)c(C)n2C(=O)c1ccc(Cl)cc1 [Indomethacin]
ED50 (carrageenan paw edema): 3.7 mg/kg

O=c1oc2c(O)c(O)cc3c(=O)oc4c(O)c(O)cc1c4c23 [Example 1, 4, 4', 5, 5', 6, 6'-hexahydrodiphenic acid 2,6, 2', 6'-dilactone]
inhibition at 10 µM [3]: 39%
inhibition at 10 µM ([4]; Leukocyte): 4%
inhibition at 50 µM (Human Platelet PLA2; at 50 μM (footnote +), read-out: % Inhibition, HP (human platelet)): 38.8%
% Inhibition, HSF (human synovial fluid) (Human Synovial PLA2; at 50 μM (footnote +), 50 µM): 89.5%
inhibition at 50 µM (Human Synovial PLA2; at 50 μM (footnote +), read-out: % Inhibition, HSF (human synovial fluid)): 86.5%
IC50 (Human Synovial PLA2): 21 nM
% Change in Edema, 10 min ([1]; 10 mg/kg i.v.): -22%
% Change in Edema, 30 min ([1]; 10 mg/kg i.v.): -64%
% Change in Edema, 60 min ([1]; 10 mg/kg i.v.): -18%
% Change in Edema, 10 min ([1]; 100 mg/kg p.o.): -35%
% Change in Edema, 30 min ([1]; 100 mg/kg p.o.): +4%
% Change in Edema, 60 min ([1]; 100 mg/kg p.o.): -73%
% Inhibition at 50 mg/kg (peroral) (carrageenan paw edema; 50 mg/kg peroral, 1 hour prior to carrageenan, edema at 3 hours): 37%
ability to activate Hageman factor (Hageman factor): ability to activate Hageman factor

COc1c(O)cc2c(=O)oc3c(OC)c(O)cc4c(=O)oc1c2c34 [3,3'dimethyl ellagic acid]
antitumor activity [5]: antitumor activity

CC(=O)Oc1cc2c(=O)oc3c(OC(C)=O)c(OC(C)=O)cc4c(=O)oc(c1OC(C)=O)c2c34 [Example 2, Ellagic Acid Tetraacetate]
inhibition at 10 µM [3]: -31%
inhibition at 10 µM (Human Platelet PLA2; read-out: % Inhibition at 10 μM, HP (human platelet)): -16.6%
inhibition at 10 µM (Human Synovial PLA2; read-out: % Inhibition at 10 μM, HSF (human synovial fluid)): 90.7%

NC1=NN(c2cccc(C(F)(F)F)c2)CC1 [BW755C, reference compound]
ED50 [1]: 50 mg/kg

Ellagic Acid Diacetate [Example 3]
% Inhibition (TxB2 synthesis) ([4]; at 10 μM): 9%
% Inhibition at 10 μM, HP (human platelet) (Human Platelet PLA2; at 10 μM): 0%
% Inhibition at 10 μM, HSF (human synovial fluid) (Human Synovial PLA2; at 10 μM): 95.6%
IC50 (Human Synovial PLA2): 360 nM
